In US7960375B2, “8-chloro-2,3-benzodiazepine derivatives” (priority 2003, dated 2011):

Columns and labels:
mice [1] = assay: Permanent focal cerebral ischemia in mice; assay type: in vivo; details: for Neuroprotective effect (necrotic brain surface area): 30 min after surgery, male NMRI mice, *p < 0.05; for dose that statistically significantly decreased the necrotic surface area: permanent focal ischemia, mice
Description: Permanent Focal Cerebral Ischemia in Mice
In these experiments a modified method of Karkoutly et al. (1990) was used. Male NMRI mice weighing 30-35 g were anaesthetized with 2,2,2-tribromoethanol at 500 mg/kg (20 ml/kg) administered i.p. The surgical procedure was performed according to Welsh et al. (1987). After drilling a hole into the skull the distal branch of the middle cerebral artery was electrocoagulated. Test compounds were administered i.p. 30 min after surgery. Two days later the animals were deeply anaesthetized with sodium pentobarbital (120 mg/kg i.p.). The brain was perfused through the left ventricle of the heart with a 4% solution of 2,3,5-triphenyltetrazolium chloride (TTC). One hour later the animals were decapitated, the brains were removed and placed into ice-cold saline for a few min. Then the brains were fixed in 8% formalin solution for 24 hours. The necrotic (non-stained with TTC) brain surface area was measured by means of an image analyser computer system (DigiCell for Windows 4.0). Statistical significance was assessed using ANOVA followed by Duncan's test.

mice [2] = assay: Maximal electroshock (MES) test in mice; assay type: in vivo; details: male NMRI mice, electroshock 30 min after ip. treatment
Description: Maximal Electroshock (MES) Test in Mice
The experiments were performed according to Swinyard et al. (1952). Male NMRI mice weighing 20 to 25 g were treated intraperitoneally with the test compounds administered in a volume of 10 ml/kg. […] The number of animals showing positive reaction was counted in each group. The dose of test substance causing 50% (ED50) inhibition was calculated according to the method of Litchfield and Wilcoxon (1949).
MES=maximal electroshock (in mice): electroshock of sufficient current intensity applied through corneal electrodes to mice causes tonic extensor convulsion of the hind legs.

[3] = Study of toxic effects in rats (body weight gain); assay type: in vivo; details: female Wistar rats, 15 mg/kg/day orally for 7 days; mean ± standard error of the mean; control 17.4 ± 1.4
Description: Study of Toxic Effects in Rats
The study was performed in female Wistar rats. On the day preceding the first treatment all animals were weighed and randomly allocated into treatment groups (10 animals/group). The test compounds were suspended in 0.4% hydroxymethyl cellulose solution (Methocell F4 M, Daw Chemical Company, USA) and were administered orally once a day for 7 days. The dose of non-chiral compounds according to the examples 8 and 9 was 15 mg/kg/day.
Animals of the control group were treated with the vehicle. The weight of the animals was registered every day. Weight gain was the difference between body weights on the first day and last day of the experiment. Toxicity of the test compounds was shown as a decrease in body weight or negative weight gain.
BWG=body weight gain: the difference between body weights on the first and last days of the experiment given as mean ± standard error of the mean.

Compound | melting point [°C] | Neuroprotective effect (necrotic brain surface area) (mice [1]; dose 1.0 mg/kg ip.) | Neuroprotective effect (necrotic brain surface area) (mice [1]; dose 3.0 mg/kg ip.) | Neuroprotective effect (necrotic brain surface area) (mice [1]; dose 10.0 mg/kg ip.) | dose that statistically significantly decreased the necrotic surface area (mice [1]) [mg/kg i.p.] | MES, ED50 (mice [2]) [mg/kg ip.] | Neuroprotective effect (necrotic brain surface area) (mice [1]; dose 0.1 mg/kg ip.) | Neuroprotective effect (necrotic brain surface area) (mice [1]; dose 0.3 mg/kg ip.) | BWG (body weight gain) [3] [g]
CC(=O)N1N=C(c2ccc(N)c(C)c2)c2cc(Cl)ccc2C=C1C | 209 to 211 |  |  |  |  |  |  |  | 
CCC(=O)N1N=C(c2ccc(N)c(C)c2)c2cc(Cl)ccc2C=C1C | 218 to 221 |  |  |  |  |  |  |  | 
CC(=O)N1N=C(c2ccc(N)cc2)c2cc3c(cc2C=C1C)OCO3 [7-acetyl-5-(4-aminophenyl)-8-methyl-7H-1,3-dioxolo-[4,5-h][2,3]-benzodiazepine, reference compound] |  | −1 | −14 | −21* | 10 |  |  |  | 
CNC(=O)N1N=C(c2ccc(N)c(C)c2)c2cc(Cl)ccc2C=C1C [Example 8, 1-(4-Amino-3-methylphenyl)-8-chloro-4-methyl-3H-2,3-benzodiazepine-3-carboxylic acid methyl amide] | 210 to 212 | −17* | −15* | −22* | 0.3 | 4.1 | −5 | −17* | 9.9 ± 3.1
CC1=Cc2ccc(Cl)cc2C(c2ccc(N)c(C)c2)=NN1C(=O)NC1CC1 [Example 9, 1-(4-Amino-3-methylphenyl)-8-chloro-4-methyl-3H-2,3-benzodiazepine-3-carboxylic acid cyclopropyl amide] | 233 to 236 |  |  |  |  | 2.2 |  |  | 17.7 ± 1.3
